The numbers were not newly measured in patent US20200179539A1, “Contrast Agents and Methods of Making the Same for Spectral CT That Exhibit Cloaking and Auto-Segmentation” (BOARD OF REGENTS, THE UNIVERSITY OF TEXAS SYSTEM, priority 2017, published 2020), which cites them from elsewhere.

In this data set the test system is rat. Particulars: rat oral.

Consider `[Na+].[Na+].[O]=[W](=[O])([O-])[O-]` [sodium tungstate], for which the LD50 is reported as 1,190 mg/Kg.
